Laboratory results taken from patent publication US8680096B2, “Diphenyl-pyrazolopyridine derivatives, preparation thereof, and use thereof as nuclear receptor not modulators” (Sanofi-Aventis, priority 2009, dated 2014).

Molecular target: T1, murine Nurr1 receptor (Mus musculus, UniProt Q06219)
T1 construct: a cell line (N2A) endogenously expressing the murine Nurr1 receptor; host or cells: Neuro-2A (N2A) mouse neuroblastoma cells stably transfected with 8NBRE-luciferase
Test: In vitro activity on N2A cells (8NBRE-luciferase reporter)
Type: cell-based
Details: N2A cells endogenously expressing Nurr1, stably transfected with 8NBRE-luciferase; 24 hours incubation
Experimental: Evaluation of the In Vitro Activity on N2A Cells
The activity of the compounds according to the invention was evaluated on a cell line (N2A) endogenously expressing the murine Nurr1 receptor and stably transfected with the NOT binding response element (NBRE) coupled to the luciferase reporter gene. The tests were performed according to the procedure described hereinbelow.
The cell line Neuro-2A is obtained from a standard commercial source (ATCC). The clone Neuro-2A was obtained from a spontaneous tumour originating from a strain of albino mice A by R. J Klebe et al. This line Neuro-2A is then stably transfected with 8NBRE-luciferase. The N2A-8NBRE cells are cultured to the point of confluence in 75 cm^2 culture flasks containing DMEM supplemented with 10% foetal calf serum, 4.5 g/L of glucose and 0.4 mg/ml of geneticin. After culturing for one week, the cells are recovered with 0.25% trypsin for 30 seconds and then resuspended in DMEM without phenol red, containing 4.5 g/L of glucose and 10% Hyclone defatted serum, and placed in white, transparent-base 96-well plates. The cells are deposited at a rate of 60 000 per well in 75 4, for 24 hours before adding the products. The products are applied in 25 4 and incubated for a further 24 hours. On the day of measurement, an equivalent volume (100 4) of Steadylite is added to each well, and the wells are then left for 30 minutes to obtain complete lysis of the cells and maximum production of the signal. The plates are then measured in a microplate luminescence counter, after having been sealed with an adhesive film. The products are prepared in the form of a 10^−2 M stock solution, and then diluted in 100% of DMSO. Each concentration of product is prediluted in culture medium before incubation with the cells thus containing 0.625% final of DMSO.

T1 sequence (Q06219 whole entry): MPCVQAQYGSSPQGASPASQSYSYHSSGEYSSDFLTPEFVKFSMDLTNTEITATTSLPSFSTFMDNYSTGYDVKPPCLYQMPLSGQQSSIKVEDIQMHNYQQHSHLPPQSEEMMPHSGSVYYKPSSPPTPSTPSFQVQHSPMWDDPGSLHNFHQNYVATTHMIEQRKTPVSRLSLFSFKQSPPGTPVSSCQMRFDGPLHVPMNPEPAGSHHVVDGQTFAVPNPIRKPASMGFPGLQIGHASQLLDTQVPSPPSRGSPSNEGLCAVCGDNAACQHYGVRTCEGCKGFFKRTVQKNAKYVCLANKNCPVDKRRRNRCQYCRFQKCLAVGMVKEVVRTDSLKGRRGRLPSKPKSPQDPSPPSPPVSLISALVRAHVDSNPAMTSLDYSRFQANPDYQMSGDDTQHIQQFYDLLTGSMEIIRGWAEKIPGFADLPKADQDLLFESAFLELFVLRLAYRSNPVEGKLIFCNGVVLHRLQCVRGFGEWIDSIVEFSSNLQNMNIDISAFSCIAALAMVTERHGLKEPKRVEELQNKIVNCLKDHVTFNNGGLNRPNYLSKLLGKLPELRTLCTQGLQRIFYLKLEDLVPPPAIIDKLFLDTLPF

| EC50 [nM] | Compound |
| --- | --- |
| 2 | CNC(=O)c1cccc(-c2ccn3nc(-c4ccc(Cl)cc4)cc3c2)c1 [Compound 4, 3-[2-(4-Chlorophenyl)pyrazolo[1,5-a]pyridin-5-yl]-N-methylbenzamide] |
| 6.6 | CNC(=O)c1cccc(-c2ccn3nc(-c4ccc(F)cc4)cc3c2)c1C [Compound 10, 3-[2-(4-Fluorophenyl)pyrazolo[1,5-a]pyridin-5-yl]-2,N-dimethylbenzamide] |
| 125 | CNC(=O)c1ccc(-c2ccn3nc(-c4ccc(F)cc4)cc3c2)cc1F [Compound 14, 2-Fluoro-4-[2-(4-fluorophenyl)pyrazolo[1,5-c]pyridin-5-yl]-N-methylbenzamide] |
| 326 | O=C(c1cccc(-c2ccn3nc(-c4ccc(F)cc4)cc3c2)c1)N1CCCC1 [Compound 16, {3-[2-(4-Fluorophenyl)pyrazolo[1,5-c]pyridin-5-yl]phenyl}pyrrolidin-1-ylmethanone] |
| 1.3 | CNC(=O)c1cccc(-c2ccn3nc(-c4cc(F)cc(F)c4)cc3c2)c1 [Compound 26] |
| 45 | NC(=O)c1cccc(-c2ccn3nc(-c4ccc(Cl)cc4)cc3c2)c1 [Compound 2, 3-[2-(4-Chlorophenyl)pyrazolo[1,5-a]pyridin-5-yl]benzamide] |

System: not given
Test: not given
Details: not given

| Compound | melting point [°C] |
| --- | --- |
| CNC(=O)c1cccc(-c2ccn3nc(-c4ccc(Cl)cc4)cc3c2)c1 [Compound 4, 3-[2-(4-Chlorophenyl)pyrazolo[1,5-a]pyridin-5-yl]-N-methylbenzamide] | 234 to 236 |
| CN(C)C(=O)c1cccc(-c2ccn3nc(-c4ccc(Cl)cc4)cc3c2)c1 [Compound 3, 3-[2-(4-Chlorophenyl)pyrazolo[1,5-a]pyridin-5-yl]-N,N-dimethyl-benzamide] | 175 to 177 |
| CNC(=O)c1ccc(Cl)c(-c2ccn3nc(-c4ccc(F)cc4)cc3c2)c1 [Compound 12, 4-Chloro-3-[2-(4-fluorophenyl)pyrazolo[1,5-a]pyridin-5-yl]-N-methylbenzamide] | 188 to 190 |
| CNC(=O)c1cc(-c2ccn3nc(-c4ccc(F)cc4)cc3c2)ccc1Cl [Compound 11, 2-Chloro-5-[2-(4-fluorophenyl)pyrazolo[1,5-a]pyridin-5-yl]-N-methylbenzamide] | 243 to 245 |
| CNC(=O)c1ccc(-c2ccn3nc(-c4ccc(F)cc4)cc3c2)cc1F [Compound 14, 2-Fluoro-4-[2-(4-fluorophenyl)pyrazolo[1,5-c]pyridin-5-yl]-N-methylbenzamide] | 227 to 229 |
| CNC(=O)c1ccc(C)c(-c2ccn3nc(-c4ccc(F)cc4)cc3c2)c1 [Compound 13, 3-[2-(4-Fluorophenyl)pyrazolo[1,5-a]pyridin-5-yl]-4,N-dimethylbenzamide] | 185 to 187 |
| O=C(NC1CC1)c1cccc(-c2ccn3nc(-c4ccc(F)cc4)cc3c2)c1 [Compound 15, N-Cyclopropyl-3-[2-(4-fluorophenyl)pyrazolo[1,5-a]pyridin-5-yl]-benzamide] | 179 to 181 |
| COC(=O)c1cccc(-c2ccn3nc(-c4ccc(F)cc4)cc3c2)c1 [Compound 5, Methyl 3-[2-(4-fluorophenyl)pyrazolo[1,5-a]pyridin-5-yl]benzoate] | 162 to 164 |
| CC(C)NC(=O)c1cccc(-c2ccn3nc(-c4ccc(F)cc4)cc3c2)c1 [Compound 7, 3-[2-(4-Fluorophenyl)pyrazolo[1,5-a]pyridin-5-yl]-N-isopropylbenzamide] | 210 to 212 |
| CNC(=O)c1cccc(-c2ccn3nc(-c4ccccc4F)cc3c2)c1 [Compound 18, 3-[2-(2-Fluorophenyl)pyrazolo[1,5-a]pyridin-5-yl]-N-methylbenzamide] | 195 to 197 |
| CNC(=O)c1cccc(-c2ccn3nc(-c4ccc(F)cc4)cc3c2)c1 [Compound 6, 3-[2-(4-Fluorophenyl)pyrazolo[1,5-a]pyridin-5-yl]-N-methylbenzamide] | 214 to 216 |
| O=C(c1cccc(-c2ccn3nc(-c4ccc(F)cc4)cc3c2)c1)N1CCCC1 [Compound 16, {3-[2-(4-Fluorophenyl)pyrazolo[1,5-c]pyridin-5-yl]phenyl}pyrrolidin-1-ylmethanone] | 164 to 166 |
| COC(=O)c1cccc(-c2ccn3nc(-c4ccc(Cl)cc4)cc3c2)c1 [Compound 1, Methyl 3-[2-(4-chlorophenyl)pyrazolo[1,5-a]pyridin-5-yl]benzoate] | 180 to 182 |
| NC(=O)c1cccc(-c2ccn3nc(-c4ccc(Cl)cc4)cc3c2)c1 [Compound 2, 3-[2-(4-Chlorophenyl)pyrazolo[1,5-a]pyridin-5-yl]benzamide] | 283 to 285 |

Continued, values first:

| melting point [°C] | Compound |
| --- | --- |
| 220 to 222 | CNC(=O)c1cccc(-c2ccn3nc(-c4ccc(C(F)(F)F)cc4)cc3c2)c1 [Compound 19, N-Methyl-3-[2-(4-trifluoromethylphenyl)pyrazolo[1,5-a]pyridin-5-yl]benzamide] |
| 264 to 266 | CNC(=O)c1ccc(-c2ccn3nc(-c4ccc(F)cc4)cc3c2)cc1 [Compound 20, 4-[2-(4-Fluorophenyl)pyrazolo[1,5-a]pyridin-5-yl]-N-methylbenzamide] |
| 252 to 254 | CNC(=O)c1cccc(-c2ccn3nc(-c4ccc(C#N)cc4)cc3c2)c1 [Compound 31, 3-[2-(4-Cyanophenyl)pyrazolo[1,5-a]pyridin-5-yl]-N-methylbenzamide] |
| 214 to 216 | CNC(=O)c1cccc(-c2ccn3nc(-c4cccc(F)c4F)cc3c2)c1 [Compound 32, 3-[2-(2,3-Difluorophenyl)pyrazolo[1,5-a]pyridin-5-yl]-N-methylbenzamide] |
| 204 to 206 | CNC(=O)c1cccc(-c2ccn3nc(-c4cccc(F)c4)cc3c2)c1 [Compound 27, 3-[2-(3-Fluorophenyl)pyrazolo[1,5-a]pyridin-5-yl]-N-methylbenzamide] |
| 211 to 213 | CNC(=O)c1cccc(-c2ccn3nc(-c4ccc(OC)cc4)cc3c2)c1 [Compound 29, 3-[2-(4-Methoxyphenyl)pyrazolo[1,5-a]pyridin-5-yl]-N-methylbenzamide] |
| 204 to 206 | CNC(=O)c1cccc(-c2ccn3nc(-c4ccc(C)cc4)cc3c2)c1 [Compound 28, N-Methyl-3-(2-p-tolylpyrazolo[1,5-a]pyridin-5-yl)benzamide] |
| 129 to 131 | CNC(=O)c1cccc(-c2ccn3nc(-c4ccccc4C)cc3c2)c1 [Compound 33, N-Methyl-3-(2-o-tolylpyrazolo[1,5-a]pyridin-5-yl)benzamide] |
| 173 to 175 | O=C(c1cccc(-c2ccn3nc(-c4ccc(F)cc4)cc3c2)c1)N1CCC(O)C1 (centres unmarked) [Compound 22, {3-[2-(4-Fluorophenyl)pyrazolo[1,5-a]pyridin-5-yl]phenyl}-(3-hydroxy-pyrrolidin-1-yl)methanone] |
| 230 to 232 | CNC(=O)c1cccc(-c2ccn3nc(-c4cc(F)cc(F)c4)cc3c2)c1 [Compound 26] |
| 210 to 212 | CNC(=O)c1cccc(-c2ccn3nc(-c4ccc(F)cc4F)cc3c2)c1 [Compound 23, 3-[2-(2,4-Difluorophenyl)pyrazolo[1,5-a]pyridin-5-yl]-N-methylbenzamide] |
| 221 to 223 | CNC(=O)c1cccc(-c2ccn3nc(-c4ccc(F)cc4)c(Cl)c3c2)c1 [Compound 34, 3-[3-Chloro-2-(4-fluorophenyl)pyrazolo[1,5-a]pyridin-5-yl]-N-methyl-benzamide] |
